From US7759302B2, “Peptidic sulfonamides” (Merck Patent GmbH, priority 2003, dated 2010)

Biological target: αvβ6 integrin (Homo sapiens, UniProt P06756+P18564)
Test: Influence of soluble substances on the binding of biotinylated fibronectin to immobilised αvβ6 (ELISA-type competition binding test)
Conditions: competition with biotinylated fibronectin at immobilised αvβ6; standard employed in each experiment
Description: The prepared peptides according to the invention together with competing fibronectin were bound in solution to the immobilised αvβ6 receptor, and the Q value as a measure of the selectivity of the binding of the peptide to be tested to αvβ6 was determined. The Q value is calculated from the quotient of the IC50 values of test peptide and a standard. The standard used was the linear Ac-RTDLDSLR-NH2(SEQ ID NO: 22) (WO01/00660; Pytela et al., 1986, Science 231, 1559). The binding test was carried out in detail as follows:
αvβ6 was immobilised on microtitre plates by dilution of the protein solution in TBS++ and subsequent incubation overnight at 4° C. (100 μl/well). Non-specific binding sites were blocked by incubation (2 h; 37° C.) with 3% (w/v) BSA in TBS++ (200 μl/well). Excess BSA was removed by washing three times with TBSA++. […]
Unbound fibronectin and peptides were removed by washing three times with TBSA++. The bound fibronectin was detected by incubation (1 h; 37° C.) with an alkaline phosphatase-coupled antibiotin antibody (1:20000 in TBSA++; 100 μl/well). […] The colour intensity was determined at 405 nm in the ELISA measuring instrument and adjusted against a blank value. […]
IC50 values for the peptides tested were read off from a graph, and the Q value of the peptide was determined therefrom together with the IC50 of the standard.

With “Ac-RTDLDSLR-NH2 [AC-RTDLDSLR-NH2, Ac-RTDLDSLR-NH2]” the IC50 was under 100 nM.
